# Literature values in publication PMC2766265 (Tetrahedron, 2008).
SMILES,binding to any of the opioid-receptor subtypes (opioid-receptor subtypes),agonist activity at the κ-opioid receptor (κ-opioid receptor)
"CC(=O)OC1C=CC2C(=O)OCC23CCC2C(=O)OC(c4ccoc4)C(OC(C)=O)C2(C)C13 (stereo not drawn) [Compound 3, splendidin]",none of these diterpenes showed significant binding,
"COC(=O)[C@@H]1C[C@H](OC(C)=O)C(=O)[C@H]2[C@@]1(C)CC[C@H]1C(=O)O[C@H](c3ccoc3)C[C@]21C [Compound 1, Salvinorin A]",,potent and selective agonist
"C[C@]12C[C@H](c3ccoc3)OC(=O)[C@H]1CC[C@@]13COC(=O)[C@@H]1C=CC[C@H]23 [Compound 2, salviarin]",none of these diterpenes showed significant binding,
